“Also recorded” adds a separate entry of the source.
Tests used:
NTUB1 cells [1] = test: MTT cytotoxicity assay, NTUB1 cells; format: cell-based, human; details: for IC50: mean ± SD, n = 3-5
From the text: (§1) The cell lines of the present invention were an human urothelial carcinoma cell line (NTUB1), a human prostate cancer cell line (PC3), a human lung adenocarcinoma epithelial cell line (A549) and a SV-40 immortalized human uroepithelial cell line (SV-HUC1). However, the cell lines applied in the present invention includes but not limit in NTUB1, PC3, A549 and SV-HUC1 cells. Other cell lines having the same characteristics or not exactly the same characteristics are able to be used in the present invention. NTUB1, PC3 and A549 cells were maintained in RPMI 1640 and SV-HUC1 cells were maintained in F12 medium supplemented with 10% fetal bovine serum (FBS), 100 unit/mL penicillin-G, 100 μg/mL streptomycin and 2 mM glutamine. The cells were cultured at 37° C. in a humidified atmosphere containing 5% carbon dioxide.
(§2) The cytotoxic effect of compounds 1 to 18 of the present invention and cisplatin (positive control) on the cell lines was evaluated using 3-[4,5-dimethylthiazol-2-yl]-2,5-diphenyltetrazolium bromide (MTT) assay. Briefly, the cells were plated at a density of 1800 cells/well in 96-well plates and incubated in the presence of graded concentrations of compounds 1 to 18 and cisplatin at 37° C. for 72 hours. At the end of the culture period, 50 μL of MTT ([…] in PBS) was added to each well and allowed to react for 3 hours. Following centrifugation of plates at 1000 g for 10 minutes, media were removed and 150 μL dimethyl sulfoxide (DMSO) were added to each well. The proportions of surviving cells were determined by absorbance spectrometry at 540 nm. The cell viability was expressed as a percentage to the viable cells of control culture condition. The IC50 value of each group were calculated by the median-effect analysis and presented as mean±standard deviation (SD).

PC3 cells [2] = test: Cell cycle analysis (propidium iodide, flow cytometer), PC3 cells; format: cell-based, human; details: FIG. 3; for apoptotic cells death: PC3, 0.3 μM; for apoptotic cells: PC3, 1 μM
Description: (§3) DNA content was determined following propidium iodide (PI) staining of cells. Briefly, 6×10^5 cells were plated and treated with 20 μM cisplatin and various concentrations of compounds 11 and 15 for 24 hours, respectively. These cells were harvested by trypsinization, washed with 1×PBS, and fixed in ice-cold MeOH at −20° C. After overnight incubation, the cells were washed with PBS and incubated with 50 μg/mL propidium iodide and 50 μg/mL RNase A in PBS at room temperature for 30 minutes. The fractions of cells in each phase of cell cycle were analyzed using flow cytometer.

PC3 cells [3] = test: MTT cytotoxicity assay, PC3 cells; format: cell-based, human; details: for IC50: mean ± SD, n = 3-5
From the text: as §1, §2

NTUB1 cells [4] = test: Cell cycle analysis (propidium iodide, flow cytometer), NTUB1 cells; format: cell-based, human; details: 24 hours, FIG. 2; for apoptotic cell death / cell cycle phase arrest: NTUB1, 1 μM; for cell cycle phase arrest: vs control
Description: as §3

NTUB1 cells [5] = test: Cell death and morphology of treated NTUB1 cells; format: cell-based, human; details: NTUB1, different concentrations, 24 hours, data not shown
A549 cells = test: MTT cytotoxicity assay, A549 cells; format: cell-based, human; details: FIG. 1, compared with NTUB1 and PC3
From the text: as §1
(§4) The cytotoxic effect of compounds 1 to 18 of the present invention and cisplatin (positive control) on the cell lines was evaluated using 3-[4,5-dimethylthiazol-2-yl]-2,5-diphenyltetrazolium bromide (MTT) assay. […] The proportions of surviving cells were determined by absorbance spectrometry at 540 nm. The cell viability was expressed as a percentage to the viable cells of control culture condition. The IC50 value of each group were calculated by the median-effect analysis and presented as mean±standard deviation (SD).

SV-HUC1 cells = test: MTT cytotoxicity assay, SV-HUC1 cells; format: cell-based, human; details: FIG. 1, compared with NTUB1 and PC3
From the text: as §1, §4

NTUB1 cells [6] = test: Immuno-fluorescence staining of α-tubulin in NTUB1 cells; format: cell-based, human
Description: In brief, NTUB 1 cells were seeded onto serum-coated coverslides. The cells were fixed with 2% formaldehyde/PBS for 20 minutes followed by cold methanol permeabilization for 3 minutes. The cells were washed with 1×PBS five minutes twice. The cells were then incubated with α-tubulin primary antibody overnight. The cells were washed with 1×PBS five minutes thrice. Goat anti-rabbit-rhodamine secondary antibody and 1 μg/mL 4′-6-diamidino-2-phenylindole (DAPI) were incubated for 1 hour at room temperature. The slides were washed with 1×PBS, mounted with mounting solution (80% glycerol/PBS) and photographed by microscopy.

α-tubulin = test: Western blot analysis for α-tubulin (soluble vs assembled) in NTUB1 cells; format: cell-based, human; details: 6 hours, FIG. 4
Description: NTUB1 cells were seeded at a density of 1×10^6/[…] dishes and treated with indicated concentrations of test agents for 6 hours. The cells were then washed with cold PBS and lysed by adding lysis buffer (20 mM Tris-HCl (pH 6.8), 1 mM MgCl2, 2 mM EGTA (ethylene glycol tetraacetic acid), […] aprotinin, […], 1 mM phenylmethylsulfonyl fluoride, 1 mM orthovanadate, and 0.5% Nonidet P-40). The cell lysates were centrifuged at 15,000 g for 10 min at 4° C. Soluble and assembled tubulin could be separated in supernatant and pellet fraction, respectively. The supernatants and pellets were […] by the sodium dodecyl sulfate (SDS)-polyacrylamide gel electrophoresis assay. The relative amounts of tubulins transferred on the nitrocellulose membrane were detected by anti-tubulin monoclonal antibody and horseradish peroxidase (HRP)-conjugated secondary antibody. β-Actin was used for control. Detection of immunoreactive signal was accomplished with Western blot chemiluminescent reagent.

## 4-(2-methylethyl)carbamoyl-2′,5′-dimethoxychalcone [Compound 11]
NTUB1 cells [1]
  cytotoxicity against NTUB1 cells (in words): significantly enhanced the cytotoxicity
NTUB1 cells [1]; 72 hours
  IC50: 1.97 ± 0.39 µM
PC3 cells [2]
  apoptotic cells death: increase of the apoptotic cells death
  apoptotic cells: increase of apoptotic cells
PC3 cells [3]
  cytotoxicity against PC3 cells (in words): significantly enhanced the cytotoxicity
PC3 cells [3]; 72 hours
  IC50: 1.58 ± 0.08 µM
NTUB1 cells [4]
  apoptotic cell death: increase in apoptotic cell death
  cell cycle phase arrest: induced G1 phase arrest

## CCOC(=O)c1ccc(/C=C/C(=O)c2cc(OC)ccc2OC)cc1 (hydrate or solvate) [Compound 3, 4-ethoxycarbonyl-2′,5′-dimethoxychalcone]
other
  melting point: 118 to 119 °C

## N.N.[Cl][Pt][Cl] [Cisplatin, cisplatin, reference compound]
NTUB1 cells [1]; 72 hours
  IC50: 3.27 ± 0.1 µM
PC3 cells [2]; PC3, 20 μM, 24 hours
  apoptotic cell death: increase of apoptotic cell death
  cell cycle distribution: accumulation of cells in S phase
PC3 cells [3]; 72 hours
  IC50: 4.56 ± 0.76 µM
NTUB1 cells [4]; NTUB1, 20 μM
  cell cycle distribution: accumulation of cells in G1 and S phases
  sub-G1 population: increase of the population of sub-G1 phase

## COc1ccc(OC)c(C(=O)/C=C/c2ccc(C(=O)O)cc2)c1 [Compound 1, 4-carboxyl-2′,5′-dimethoxychalcone]
NTUB1 cells [1]
  cytotoxicity against NTUB1 cells (in words): significantly cytotoxic activities
NTUB1 cells [1]; Homo sapiens, NTUB1, 72 hours
  IC50: 5.7 ± 0.68 µM
other
  melting point: 214 to 215 °C
PC3 cells [3]; Homo sapiens, PC-3, 72 hours
  IC50: 7.24 ± 0.58 µM

## COC(=O)c1ccc(/C=C/C(=O)c2cc(OC)ccc2OC)cc1 [Compound 2, 4-methoxycarbonyl-2′,5′-dimethoxychalcone]
NTUB1 cells [1]; Homo sapiens, NTUB1, 72 hours
  IC50: 3.51 ± 0.45 µM
other
  melting point: 118 to 119 °C
PC3 cells [3]; Homo sapiens, PC-3, 72 hours
  IC50: 4.85 ± 0.11 µM

## CCOC(=O)c1ccc(/C=C/C(=O)c2cc(OC)ccc2OC)cc1 [Compound 3, 4-ethoxycarbonyl-2′,5′-dimethoxychalcone]
NTUB1 cells [1]; Homo sapiens, NTUB1, 72 hours
  IC50: 4.49 ± 0.98 µM
PC3 cells [3]; Homo sapiens, PC-3, 72 hours
  IC50: 5.7 ± 0.43 µM

## CCCOC(=O)c1ccc(C=CC(=O)c2cc(OC)ccc2OC)cc1 [Compound 4, propoxycarbonyl-2′,5′-dimethoxychalcone]
NTUB1 cells [1]; 72 hours
  IC50: 6.01 ± 0.3 µM
PC3 cells [3]; 72 hours
  IC50: 26.9 µM

## COc1ccc(OC)c(C(=O)/C=C/c2ccc(C(=O)OC(C)C)cc2)c1 [Compound 5, 4-isopropoxycarbonyl-2′,5′-dimethoxychalcone]
NTUB1 cells [1]; Homo sapiens, NTUB1, 72 hours
  IC50: 4.42 ± 0.5 µM
PC3 cells [3]; Homo sapiens, PC-3, 72 hours
  IC50: 6.74 ± 1.34 µM

## COc1ccc(OC)c(C(=O)/C=C/c2ccc(C(=O)OCc3ccccc3)cc2)c1 [Compound 6, 4-benzyloxycarbonyl-2′,5′-dimethoxychalcone]
NTUB1 cells [1]; Homo sapiens, NTUB1, 72 hours
  IC50: 13.3 ± 2.86 µM
PC3 cells [3]; Homo sapiens, PC-3, 72 hours
  IC50: 17.9 ± 0.5 µM

## COc1ccc(OC)c(C(=O)/C=C/c2ccc(C(=O)OCC=C(C)C)cc2)c1 [Compound 7, 4-(3-methyl-but-2-enyloxycarbonyl)-2′,5′-dimethoxychalcone]
NTUB1 cells [1]; Homo sapiens, NTUB1, 72 hours
  IC50: 13.4 ± 0.78 µM
PC3 cells [3]; Homo sapiens, PC-3, 72 hours
  IC50: > 50 µM

## CNC(=O)c1ccc(/C=C/C(=O)c2cc(OC)ccc2OC)cc1 [Compound 8, 4-methylcarbamoyl-2′,5′-dimethoxychalcone]
NTUB1 cells [1]; Homo sapiens, NTUB1, 72 hours
  IC50: 2.2 ± 0.37 µM
other
  melting point: 217 to 218 °C
PC3 cells [3]; Homo sapiens, PC-3, 72 hours
  IC50: 2.13 ± 0.21 µM

## CCNC(=O)c1ccc(/C=C/C(=O)c2cc(OC)ccc2OC)cc1 [Compound 9, 4-ethylcarbamoyl-2′,5′-dimethoxychalcone]
NTUB1 cells [1]; Homo sapiens, NTUB1, 72 hours
  IC50: 3.76 ± 0.4 µM
other
  melting point: 213 to 214 °C
PC3 cells [3]; Homo sapiens, PC-3, 72 hours
  IC50: 4.18 ± 0.23 µM

## CCCNC(=O)c1ccc(/C=C/C(=O)c2cc(OC)ccc2OC)cc1 [Compound 10, 4-propylcarbamoyl-2′,5′-dimethoxychalcone]
NTUB1 cells [1]
  cytotoxicity against NTUB1 cells (in words): significantly enhanced the cytotoxicity
NTUB1 cells [1]; Homo sapiens, NTUB1, 72 hours
  IC50: 2.26 ± 0.31 µM
PC3 cells [3]
  cytotoxicity against PC3 cells (in words): significantly enhanced the cytotoxicity
PC3 cells [3]; Homo sapiens, PC-3, 72 hours
  IC50: 1.5 ± 0.22 µM

## COc1ccc(OC)c(C(=O)/C=C/c2ccc(C(=O)N(C)C)cc2)c1 [Compound 12, 4-dimethylcarbamoyl-2′,5′-dimethoxychalcone]
NTUB1 cells [1]; Homo sapiens, NTUB1, 72 hours
  IC50: 3.89 ± 0.21 µM
PC3 cells [3]; Homo sapiens, PC-3, 72 hours
  IC50: 4.58 ± 1.05 µM

## COc1ccc(OC)c(C(=O)/C=C/c2ccc(C(=O)NC3CCCCC3)cc2)c1 [Compound 13, 4-cyclohexylcarbamoyl-2′,5′-dimethoxychalcone]
NTUB1 cells [1]; Homo sapiens, NTUB1, 72 hours
  IC50: 2.25 ± 0.57 µM
other
  melting point: 280 to 281 °C
PC3 cells [3]; Homo sapiens, PC-3, 72 hours
  IC50: 6.3 ± 0.59 µM

## CCN(CC)C(=O)c1ccc(/C=C/C(=O)c2cc(OC)ccc2OC)cc1 [Compound 14, 4-diethylcarbamoyl-2′,5′-dimethoxychalcone]
NTUB1 cells [1]; Homo sapiens, NTUB1, 72 hours
  IC50: 2.69 ± 0.47 µM
PC3 cells [3]; Homo sapiens, PC-3, 72 hours
  IC50: 3.79 ± 0.56 µM

## COc1ccc(OC)c(C(=O)C=Cc2ccc(C(=O)N3CCCC3)cc2)c1 [Compound 15, 4-tetrahydropyrrolylcarbamoyl-2′,5′-dimethoxychalcone]
NTUB1 cells [5]
  cell death and cell shape after treatment: more cell death and rounding up
NTUB1 cells [1]
  cytotoxicity against NTUB1 cells (in words): significantly enhanced the cytotoxicity; also recorded: strongest cytotoxicity
NTUB1 cells [1]; 72 hours
  IC50: 1.26 ± 0.25 µM
A549 cells
  cytotoxicity against A549 cells (in words): more potent cytotoxic effect against NTUB1 and PC3 cells than that of A549 cells; also recorded: less cytotoxicity
SV-HUC1 cells
  cytotoxicity against human normal uroepithelial SV-HUC1 cells (in words): less cytotoxicity against human normal uroepithelial SV-HUC1 cells than those of NTUB1 and PC3 cells lines
NTUB1 cells [6]; NTUB1, 1 μM, data not shown
  cells arrested at mitosis: induced more NTUB1 cells arrested at mitosis
NTUB1 cells [6]; NTUB1, immuno-fluorescent microscopy, mimicked the effect of paclitaxel
  microtubule bundle formation: induced the microtubule bundle formation
PC3 cells [2]
  apoptotic cells death: increase of the apoptotic cells death
  apoptotic cells: increase of apoptotic cells
PC3 cells [3]
  cytotoxicity against PC3 cells (in words): significantly enhanced the cytotoxicity; also recorded: strongest cytotoxicity
PC3 cells [3]; 72 hours
  IC50: 0.53 µM
α-tubulin; NTUB1, various concentrations
  α-tubulin level in the pellet (assembled): increased in a dose-dependent manner
  α-tubulin level in the supernatant (soluble): decreased level in a dose-dependent manner
NTUB1 cells [4]
  apoptotic cell death: increase in apoptotic cell death
  cell cycle phase arrest: induced G1 phase arrest

## COc1ccc(OC)c(C(=O)C=Cc2ccc(C(=O)N(C)CCO)cc2)c1 [Compound 16, 4-(2-hydroxyethyl)methyl-carbamoyl-2′,5′-dimethoxychalcone]
NTUB1 cells [1]; 72 hours
  IC50: 4.42 ± 0.15 µM
PC3 cells [3]; 72 hours
  IC50: 5.75 ± 1.27 µM

## COc1ccc(OC)c(C(C=Cc2ccc(C(=O)NC3CC3)cc2)=NC2CC2)c1 [Compound 17, N-cyclopropyl-4-[3-cyclopropylimino-3-(2′,5′-dimethoxy-phenyl)-propenyl]-benzamide]
NTUB1 cells [1]; 72 hours
  IC50: 3.57 ± 0.47 µM
PC3 cells [3]; 72 hours
  IC50: 4.26 ± 0.81 µM

## COc1ccc(OC)c(C(=O)/C=C/c2ccc(C(=O)O)s2)c1 [Compound 18]
NTUB1 cells [1]
  cytotoxicity against NTUB1 cells (in words): no significant cytotoxicity
NTUB1 cells [1]; Homo sapiens, NTUB1, 72 hours
  IC50: > 50 µM
other
  melting point: 237 to 238 °C

## CC(=O)O[C@H]1C(=O)[C@@]2(C)[C@H]([C@H](OC(=O)c3ccccc3)[C@]3(O)C[C@H](OC(=O)[C@H](O)[C@@H](NC(=O)c4ccccc4)c4ccccc4)C(C)=C1C3(C)C)[C@]1(OC(C)=O)CO[C@@H]1C[C@@H]2O [Paclitaxel, paclitaxel, reference compound]
α-tubulin; NTUB1, 500 nM
  tubulin assembly: stabilized the tubulin assembly
